The structures appear in SMILES notation. Numbers after ± are expanded uncertainties.

Results on four molecules are retold here after the NIST ThermoML archive (doi:10.1016/j.jct.2010.04.022).

The conditions of data set [1]: 298.15 K; 101.33 kPa; Liquid; Vibrating tube method.
Data set [2] is described as follows: refractive index (Na D-line) (dimensionless). The conditions noted are these: 298.15 K; 101.33 kPa; Liquid; Standard Abbe refractometry.
Data set [3] is described as follows: xn = mol fraction of the nth substance listed. The note with it: 101 kPa, Liquid, Vibrating tube method.

On to `CCOS(=O)(=O)[O-].CC[n+]1ccccc1` [1-ethylpyridinium ethyl sulfate], for which, in data set [1], the mass density amounted to 1252 ± 0.4 kg/m3. The refractive index in data set [2] is recorded as 1.50525 ± 0.00037.

As for `CCOS(=O)(=O)[O-].CC[n+]1ccccc1` [1-ethylpyridinium ethyl sulfate] + CCCCCC, the mass density in data set [3] (283.15 K, x2 = 0.007) stood at 1259.82 ± 0.99 kg/m3; in data set [3] (298.15 K, x2 = 0.008), 1249.78 ± 1.1 kg/m3.

Consider `CCOS(=O)(=O)[O-].CC[n+]1ccccc1` [1-ethylpyridinium ethyl sulfate] + CCCCCCC, for which the mass density in data set [3] (283.15 K, x2 = 0.007) amounted to 1260.51 ± 0.99 kg/m3; in data set [3] (298.15 K, x2 = 0.007), 1250.63 ± 0.98 kg/m3.

For `CCOS(=O)(=O)[O-].CC[n+]1ccccc1` [1-ethylpyridinium ethyl sulfate] + c1ccccc1, the mass density is on record as 1198.57 ± 1.7 kg/m3 in data set [3] (283.15 K, x2 = 0.335) and 1171.69 ± 1.7 kg/m3 in data set [3] (298.15 K, x2 = 0.406).

By mass density is commonly meant the mass of a sample divided by its volume. In general, refractive index refers to a measure of how strongly the sample bends light.
